Activity calls are given as the source filed them. No cut-off for these calls is given here.
Columns and labels:
Rattus norvegicus [1] = assay: Acute toxicity in po dosed rat; type: organism-based; details: in vivo
Cannabinoid receptor 2 = Cannabinoid receptor 2 (Homo sapiens, UniProt P34972); assay: Displacement of [3H]WIN-55212-2 from human CB2 receptor expressed in CHO-K1 cells after 1 hr by liquid scintillation counting; type: cell-based
[2] = Selectivity ratio of IC50 for human CB2 receptor to IC50 for CB1 receptor in Sprague-Dawley rat cerebellum; type: tissue-based
Mus musculus [3] = assay: Antiobesity activity in diet-induced obesity C57BL/6 mouse model assessed as reduction of body weight at 10 mg/kg, po qd for 14 days; type: functional; design: scale not given: the % may be the effect or the level left
Mus musculus [4] = assay: Antiobesity activity in po dosed diet-induced obesity C57BL/6 mouse model assessed as reduction of body weight administered qd for 13 days; type: functional, organism-based
Mus musculus [5] = assay: Antiobesity activity in diet-induced obesity C57BL/6 mouse model assessed as reduction of body weight at 10 mg/kg, po qd for 13 days; type: functional; design: scale not given: the % may be the effect or the level left
Mus musculus [6] = assay: Antiobesity activity in diet-induced obesity C57BL/6 mouse model assessed as reduction of body weight at 20 mg/kg, po qd for 13 days; type: functional; design: scale not given: the % may be the effect or the level left
Mus musculus [7] = assay: Antiobesity activity in diet-induced obesity C57BL/6 mouse model assessed as reduction of body weight at 3 mg/kg, po qd for 13 days; type: functional
Mus musculus [8] = assay: Antiobesity activity in po dosed diet-induced obesity C57BL/6 mouse model assessed as reduction mean white adipocytes diameter qd for 14 days; type: functional, organism-based
Rattus norvegicus [9] = assay: Antiobesity activity in diet-induced obesity Sprague-Dawley rat model assessed as reduction of body weight administered at 10 mg/kg, po qd for 13 days; type: functional; design: scale not given: the % may be the effect or the level left
Mus musculus [10] = assay: Antidiabetic activity in ob/ob mouse at 10 mg/kg, po qd for 14 days; type: functional, organism-based; design: dose 10 mg/kg
Mus musculus [11] = assay: Antidiabetic activity in db/db mouse at 10 mg/kg, po qd for 14 days; type: functional, organism-based; design: dose 10 mg/kg
Mus musculus [12] = assay: Antidiabetic activity in diet-induced obesity mouse model at 10 mg/kg, po qd for 14 days; type: functional, organism-based; design: dose 10 mg/kg
[13] = Tmax in Sprague-Dawley rat at 5 mg/kg, po; type: ADME, organism-based; design: dose 5 mg/kg, route oral; details: in vivo
[14] = Cmax in Sprague-Dawley rat at 5 mg/kg, po; type: ADME, organism-based; design: dose 5 mg/kg, route oral; details: in vivo
[15] = Cmax in Sprague-Dawley rat at 1 mg/kg, iv; type: ADME, organism-based; design: dose 1 mg/kg, route intravenous; details: in vivo
Rattus norvegicus [16] = assay: Clast in Sprague-Dawley rat at 5 mg/kg, po; type: ADME, organism-based; design: dose 5 mg/kg, route oral; details: in vivo
Rattus norvegicus [17] = assay: Clast in Sprague-Dawley rat at 1 mg/kg, iv; type: ADME, organism-based; design: dose 1 mg/kg, route intravenous; details: in vivo
[18] = Half life in Sprague-Dawley rat at 5 mg/kg, po; type: ADME, organism-based; design: dose 5 mg/kg, route oral; details: in vivo
[19] = Half life in Sprague-Dawley rat at 1 mg/kg, iv; type: ADME, organism-based; design: dose 1 mg/kg, route intravenous; details: in vivo
[20] = Clearance in Sprague-Dawley rat at 1 mg/kg, iv; type: ADME, organism-based; design: dose 1 mg/kg, route intravenous; details: in vivo
Rattus norvegicus [21] = assay: AUC (0 to infinity) in Sprague-Dawley rat at 5 mg/kg, po; type: ADME, organism-based, Plasma; design: time infinity, dose 5 mg/kg, route oral; details: in vivo
Rattus norvegicus [22] = assay: AUC (0 to infinity) in Sprague-Dawley rat at 1 mg/kg, iv; type: ADME, organism-based, Plasma; design: time infinity, dose 1 mg/kg, route intravenous; details: in vivo
[23] = Oral bioavailability in Sprague-Dawley rat at 5 mg/kg, po; type: ADME, organism-based; details: in vivo
[24] = Ratio of drug level in brain to plasma in Sprague-Dawley rat; type: ADME
Cytochrome P450 1A2 = biological target: T1, Cytochrome P450 1A2 (Homo sapiens, UniProt P05177); assay: Inhibition of CYP1A2 in human liver microsomes after 30 mins; type: ADME, Microsome
T1 sequence (P05177 whole entry): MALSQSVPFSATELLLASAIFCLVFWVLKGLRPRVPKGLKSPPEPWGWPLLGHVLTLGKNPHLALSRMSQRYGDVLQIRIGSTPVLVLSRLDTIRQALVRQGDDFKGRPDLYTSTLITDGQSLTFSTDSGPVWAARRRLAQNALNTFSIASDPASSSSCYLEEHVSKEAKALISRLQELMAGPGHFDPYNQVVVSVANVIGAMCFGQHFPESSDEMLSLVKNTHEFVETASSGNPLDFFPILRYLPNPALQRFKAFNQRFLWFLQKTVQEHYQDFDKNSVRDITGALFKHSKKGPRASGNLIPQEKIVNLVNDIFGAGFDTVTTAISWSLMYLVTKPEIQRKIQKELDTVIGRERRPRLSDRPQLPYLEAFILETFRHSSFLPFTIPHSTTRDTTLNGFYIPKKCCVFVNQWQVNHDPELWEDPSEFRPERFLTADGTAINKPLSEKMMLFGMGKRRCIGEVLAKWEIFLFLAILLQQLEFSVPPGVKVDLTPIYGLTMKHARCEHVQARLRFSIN

Cytochrome P450 2C9 = Cytochrome P450 2C9 (Homo sapiens, UniProt P11712); assay: Inhibition of CYP2C9 in human liver microsomes after 30 mins; type: ADME, Microsome
Cytochrome P450 3A4 = Cytochrome P450 3A4 (Homo sapiens, UniProt P08684); assay: Inhibition of CYP3A4 in human liver microsomes after 30 mins; type: ADME, Microsome
[25] = biological target: Voltage-gated inwardly rectifying potassium channel KCNH2 (Homo sapiens, UniProt Q12809); assay: Inhibition of human ERG at holding potential of -80 mV to +40 mV
Nucleic Acid = assay: Induction of DNA damage up to 50 uM after 2 hrs by comet assay; type: nucleic-acid assay
[26] = Mutagenic activity in Salmonella Typhimurium TA100 assessed as number of spontaneous and drug-induced revertants after 48 hrs by Ames test; type: toxicity; details: salmonella enterica subsp. enterica serovar typhimurium
[27] = Cytotoxicity against human HuH7 cells; type: cell-based; details: Huh-7
Vero = assay: Cytotoxicity against african green monkey Vero cells; type: cell-based; details: Chlorocebus sabaeus
HCT-116 = assay: Cytotoxicity against human HCT116 cells; type: cell-based
HEK293 = assay: Cytotoxicity against human HEK293 cells; type: cell-based
Rattus norvegicus [28] = assay: Acute toxicity in rat assessed as mortality at 2000 mg/kg, po; type: organism-based; design: dose 2000 mg/kg, route oral; details: in vivo
Rattus norvegicus [29] = assay: Acute toxicity in rat assessed as mortality at 1500 mg/kg, po; type: organism-based; design: dose 1500 mg/kg, route oral; details: in vivo
[30] = Acute toxicity in po dosed rat assessed as mortality; type: organism-based; details: in vivo
Rattus norvegicus [31] = assay: Acute toxicity in rat assessed as mortality at 1000 mg/kg, po qd for 7 days; type: organism-based; design: dose 1000 mg/kg, route oral; details: in vivo, 168 h
Rattus norvegicus [32] = assay: Acute toxicity in rat assessed as mortality at 500 mg/kg, po qd for 7 days; type: organism-based; design: dose 500 mg/kg, route oral; details: in vivo, 168 h
Rattus norvegicus [33] = assay: Acute toxicity in rat assessed as mortality at 250 mg/kg, po qd for 7 days; type: organism-based; design: dose 250 mg/kg, route oral; details: in vivo, 168 h
Rattus norvegicus [34] = assay: Acute toxicity in rat assessed as mortality at 125 mg/kg, po qd for 7 days; type: organism-based; design: dose 125 mg/kg, route oral; details: in vivo, 168 h
Cytochrome P450 2D6 = Cytochrome P450 2D6 (Homo sapiens, UniProt P10635); assay: Inhibition of CYP2D6 in human liver microsomes after 30 mins; type: ADME, Microsome
Cannabinoid receptor 1 = Cannabinoid receptor 1 (Rattus norvegicus, UniProt P20272)
Sequence of Cannabinoid receptor 1 (P20272 whole entry): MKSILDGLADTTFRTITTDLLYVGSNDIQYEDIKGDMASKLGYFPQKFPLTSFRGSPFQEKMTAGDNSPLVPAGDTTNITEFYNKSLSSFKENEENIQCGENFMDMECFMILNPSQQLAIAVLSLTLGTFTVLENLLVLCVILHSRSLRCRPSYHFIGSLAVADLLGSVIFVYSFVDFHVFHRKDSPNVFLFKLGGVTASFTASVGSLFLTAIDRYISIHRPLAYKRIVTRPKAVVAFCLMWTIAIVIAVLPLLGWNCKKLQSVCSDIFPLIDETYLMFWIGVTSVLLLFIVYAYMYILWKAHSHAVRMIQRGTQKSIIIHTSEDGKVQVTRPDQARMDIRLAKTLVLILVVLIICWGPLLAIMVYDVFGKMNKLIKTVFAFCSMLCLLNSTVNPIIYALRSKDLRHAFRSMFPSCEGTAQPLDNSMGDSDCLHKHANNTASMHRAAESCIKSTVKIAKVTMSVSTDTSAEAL
Description: Displacement of [3H]CP-55940 from CB1 receptor in Sprague-Dawley rat cerebellum after 1 hr by liquid scintillation counting

Sequence of Cannabinoid receptor 2 (P34972 whole entry): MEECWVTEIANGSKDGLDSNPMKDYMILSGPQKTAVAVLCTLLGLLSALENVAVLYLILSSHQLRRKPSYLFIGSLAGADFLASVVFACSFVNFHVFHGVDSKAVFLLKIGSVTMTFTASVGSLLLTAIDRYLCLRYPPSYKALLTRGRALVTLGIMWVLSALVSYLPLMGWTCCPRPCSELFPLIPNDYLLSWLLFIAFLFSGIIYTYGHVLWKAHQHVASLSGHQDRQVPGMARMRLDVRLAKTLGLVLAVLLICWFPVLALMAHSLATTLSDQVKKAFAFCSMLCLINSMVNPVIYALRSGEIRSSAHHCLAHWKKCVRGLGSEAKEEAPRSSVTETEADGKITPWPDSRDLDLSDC
Sequence of Voltage-gated inwardly rectifying potassium channel KCNH2 (Q12809 whole entry): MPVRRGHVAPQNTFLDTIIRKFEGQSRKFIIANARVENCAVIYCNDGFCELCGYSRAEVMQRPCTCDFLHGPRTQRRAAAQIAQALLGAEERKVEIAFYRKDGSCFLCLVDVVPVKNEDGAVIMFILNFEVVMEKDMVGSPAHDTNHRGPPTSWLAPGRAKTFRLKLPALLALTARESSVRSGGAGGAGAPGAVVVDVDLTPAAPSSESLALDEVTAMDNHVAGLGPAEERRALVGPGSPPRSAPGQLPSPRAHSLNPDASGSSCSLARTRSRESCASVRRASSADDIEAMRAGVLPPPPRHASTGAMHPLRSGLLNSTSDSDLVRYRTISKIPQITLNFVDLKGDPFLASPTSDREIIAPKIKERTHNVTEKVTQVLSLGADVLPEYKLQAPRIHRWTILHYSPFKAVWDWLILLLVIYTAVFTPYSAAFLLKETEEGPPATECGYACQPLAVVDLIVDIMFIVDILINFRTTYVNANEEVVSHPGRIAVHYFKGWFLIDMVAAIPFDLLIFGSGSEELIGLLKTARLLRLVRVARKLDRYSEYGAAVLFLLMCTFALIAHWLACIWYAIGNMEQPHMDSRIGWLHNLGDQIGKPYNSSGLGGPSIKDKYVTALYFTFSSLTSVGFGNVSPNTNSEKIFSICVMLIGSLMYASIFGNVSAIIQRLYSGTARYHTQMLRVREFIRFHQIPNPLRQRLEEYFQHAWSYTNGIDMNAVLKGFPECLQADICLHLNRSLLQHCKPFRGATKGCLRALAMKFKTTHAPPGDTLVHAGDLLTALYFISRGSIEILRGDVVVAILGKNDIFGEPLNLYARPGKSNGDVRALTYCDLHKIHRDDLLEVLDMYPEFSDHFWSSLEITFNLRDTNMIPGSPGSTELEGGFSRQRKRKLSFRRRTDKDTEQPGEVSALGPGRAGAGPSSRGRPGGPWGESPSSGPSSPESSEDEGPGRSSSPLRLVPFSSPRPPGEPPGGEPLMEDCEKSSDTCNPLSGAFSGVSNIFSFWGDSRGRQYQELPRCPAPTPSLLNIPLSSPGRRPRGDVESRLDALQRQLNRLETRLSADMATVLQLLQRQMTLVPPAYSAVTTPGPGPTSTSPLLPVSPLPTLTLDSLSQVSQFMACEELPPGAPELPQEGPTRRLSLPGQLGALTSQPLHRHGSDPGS
Sequence of Cytochrome P450 2D6 (P10635 whole entry): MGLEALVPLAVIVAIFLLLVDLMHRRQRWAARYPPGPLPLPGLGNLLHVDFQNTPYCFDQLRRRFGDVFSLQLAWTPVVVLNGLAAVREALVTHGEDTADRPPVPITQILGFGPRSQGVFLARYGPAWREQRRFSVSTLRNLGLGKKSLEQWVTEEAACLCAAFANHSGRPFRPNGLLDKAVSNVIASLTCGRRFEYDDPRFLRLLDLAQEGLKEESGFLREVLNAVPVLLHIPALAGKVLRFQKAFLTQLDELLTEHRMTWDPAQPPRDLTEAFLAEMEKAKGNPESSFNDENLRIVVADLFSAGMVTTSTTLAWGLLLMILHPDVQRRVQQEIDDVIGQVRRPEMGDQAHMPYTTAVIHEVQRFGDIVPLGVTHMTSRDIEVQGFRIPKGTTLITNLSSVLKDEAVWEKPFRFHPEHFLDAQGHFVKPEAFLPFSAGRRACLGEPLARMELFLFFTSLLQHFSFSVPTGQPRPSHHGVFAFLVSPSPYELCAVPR
Sequence of Cytochrome P450 2C9 (P11712 whole entry): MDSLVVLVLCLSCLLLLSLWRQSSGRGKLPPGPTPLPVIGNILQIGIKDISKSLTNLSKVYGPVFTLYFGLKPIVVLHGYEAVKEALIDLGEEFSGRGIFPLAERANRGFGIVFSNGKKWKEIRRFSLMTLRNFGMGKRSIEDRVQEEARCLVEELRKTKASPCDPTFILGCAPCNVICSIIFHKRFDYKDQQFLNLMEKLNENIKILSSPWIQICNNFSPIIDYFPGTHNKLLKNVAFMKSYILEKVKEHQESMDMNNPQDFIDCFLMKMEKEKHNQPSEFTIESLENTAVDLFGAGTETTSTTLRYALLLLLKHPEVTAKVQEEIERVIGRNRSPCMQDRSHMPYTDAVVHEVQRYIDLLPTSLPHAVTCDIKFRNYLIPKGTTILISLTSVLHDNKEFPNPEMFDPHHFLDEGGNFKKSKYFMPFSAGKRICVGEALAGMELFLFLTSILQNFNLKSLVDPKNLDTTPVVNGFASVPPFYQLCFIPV
Sequence of Cytochrome P450 3A4 (P08684 whole entry): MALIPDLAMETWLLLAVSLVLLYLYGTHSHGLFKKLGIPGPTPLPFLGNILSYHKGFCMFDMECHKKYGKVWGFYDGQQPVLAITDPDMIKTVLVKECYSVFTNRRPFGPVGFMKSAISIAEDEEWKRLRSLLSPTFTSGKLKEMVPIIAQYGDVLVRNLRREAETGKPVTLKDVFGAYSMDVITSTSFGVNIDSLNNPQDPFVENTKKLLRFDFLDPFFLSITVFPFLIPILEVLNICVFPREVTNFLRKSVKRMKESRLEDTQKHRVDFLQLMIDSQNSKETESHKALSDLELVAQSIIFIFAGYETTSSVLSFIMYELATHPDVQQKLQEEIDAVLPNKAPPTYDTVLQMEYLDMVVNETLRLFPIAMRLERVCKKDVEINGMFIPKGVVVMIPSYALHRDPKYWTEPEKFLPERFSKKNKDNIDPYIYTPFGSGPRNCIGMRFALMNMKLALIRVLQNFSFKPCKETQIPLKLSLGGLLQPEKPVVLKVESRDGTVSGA

For CC(C)(C)c1nnc(-c2nn(-c3ccccc3Cl)c(-c3ccc(Br)cc3)c2Cn2cncn2)s1, the Activity (Rattus norvegicus [1]) was 125 mg/kg, the IC50 (Cannabinoid receptor 2) was 0.549 µM and the Ratio IC50 [2] was 807. For the same molecule, the Activity (Mus musculus [3]) was 32.55%, the Activity (Mus musculus [4]) was “Dose-dependent effect” and the Activity (Mus musculus [5]) was 34.9%. The Activity (Mus musculus [6]) was 38.06%, the Activity (Mus musculus [7]) was “Active” and the Activity (Mus musculus [8]) was “Dose-dependent effect”. For the same molecule, the Activity (Rattus norvegicus [9]) was 15.59%, the Activity (Mus musculus [10]) was “Active” and the Activity (Mus musculus [11]) was “Active”. The Activity (Mus musculus [12]) was “Active”, the Tmax [13] was 1 h and the Cmax [14] was 1530 ng/mL. For the same molecule, the Cmax [15] was 2500 ng/mL, the Clast (Rattus norvegicus [16]) was 30 ng/mL and the Clast (Rattus norvegicus [17]) was 50 ng/mL. For the same molecule, the half-life [18] was 7.11 h, the half-life [19] was 5.3 h and the clearance [20] was 10.7 mL/min/kg. For the same molecule, the AUC (Rattus norvegicus [21]) was 369.72 min/µg/mL, the AUC (Rattus norvegicus [22]) was 119.9 min/µg/mL and the bioavailability [23] was 61.7%. For the same molecule, the BPR [24] was 58%, the IC50 (Cytochrome P450 1A2) was over 20 µM and the IC50 (Cytochrome P450 2C9) was over 20 µM. The IC50 (Cytochrome P450 3A4) was over 20 µM, the IC50 [25] was 10.5 µM and the Activity (Nucleic Acid) was “Non-toxic”. The Activity [26] was “Non-toxic”, the EC50 [27] was over 100 µM and the EC50 (Vero) was over 100 µM. The EC50 (HCT-116) was over 100 µM, the EC50 (HEK293) was over 100 µM and the Activity (Rattus norvegicus [28]) was “Non-toxic”. For the same molecule, the Activity (Rattus norvegicus [29]) was “Non-toxic”, the LD50 [30] was over 2000 mg/kg and the Activity (Rattus norvegicus [31]) was “Non-toxic”. The Activity (Rattus norvegicus [32]) was “Non-toxic”, the Activity (Rattus norvegicus [33]) was “Non-toxic” and the Activity (Rattus norvegicus [34]) was “Non-toxic”. The IC50 (Cytochrome P450 2D6) was over 20 µM and the IC50 (Cannabinoid receptor 1) was 0.000681 µM.
